Data as given in ChEMBL document CHEMBL5042486, “Discovery and Preclinical Characterization of BIIB091, a Reversible, Selective BTK Inhibitor for the Treatment of Multiple Sclerosis” (J Med Chem, 2022).
Calls of active or inactive are those of the source. The rule behind the calls is not given here.

Tests used:
Liver [1] = assay: Drugmetabolism in human liver microsomes assessed as metabolite formation; format: ADME, Microsome
[2] = Protein binding in human plasma assessed as unbound fraction; format: ADME, cell-free
Cynomolgus monkey [3] = assay: In vivo toxicity in cynomolgus monkey assessed as compound related toxicity at 250 mg/kg after 28 days; format: organism-based, Macaca fascicularis; details: 672 h, time 28 day
Bile salt export pump = Bile salt export pump (Homo sapiens, UniProt O95342); assay: Inhibition of BSEP (unknown origin) at >30 uM
[4] = Kinetic solubility of the compound at pH 1.5 by shake flask method; format: physicochemical; details: buffer, read-out: Kinetic_solubility
[5] = Hepatotoxicity in rat primary cells assessed as change in urea level for 10 days; format: toxicity, cell-based, Hepatocyte; details: hepatocytes, 240 h, time 10 day
[6] = Drugmetabolism in cynomolgus monkey liver microsomes assessed as metabolite formation; format: ADME, Macaca fascicularis, Microsome
[7] = biological target: Broad substrate specificity ATP-binding cassette transporter ABCG2 (Homo sapiens, UniProt Q9UNQ0); assay: Inhibition of BCRP (unknown origin) at >30 uM
[8] = In vivo toxicity in Sprague-Dawley rat assessed as compound related toxicity at 500 mg/kg after 28 days; format: organism-based; details: 672 h, time 28 day
[9] = Drugmetabolism in human hepatocytes assessed as metabolite formation; format: ADME, cell-based, Hepatocyte
[10] = In vivo inhibition of BTK-dependent B cell activation in C57BL/6 mouse immunized with NP-Ficoll assessed as reduction in anti-NP IgM antibody titer at 10 mg/kg, po BID dosed for 10 days; format: functional; set-up: scale not given: the % may be the effect or the level left; details: time 10 day
[11] = In vivo inhibition of BTK-dependent B cell activation in C57BL/6 mouse immunized with NP-Ficoll assessed as reduction in anti-NP IgM antibody titer; format: toxicity, organism-based
[12] = Volume of distribution at steady state in Spargue-Dawley rat at 5 mg/kg, po; format: ADME, organism-based; details: in vivo
[13] = Protein binding in rat plasma assessed as unbound fraction; format: ADME, cell-free
Cynomolgus monkey [14] = assay: In vivo toxicity in cynomolgus monkey assessed as compound related pathology at 250 mg/kg after 28 days; format: organism-based, Macaca fascicularis; details: 672 h, time 28 day
[15] = Drugmetabolism in rat hepatocytes assessed as metabolite formation; format: ADME, cell-based, Hepatocyte
[16] = In vivo inhibition of BTK-dependent B cell activation in C57BL/6 mouse immunized with NP-Ficoll assessed as reduction in anti-NP IgM antibody titer at 30 mg/kg, po BID dosed for 10 days; format: functional; set-up: scale not given: the % may be the effect or the level left; details: time 10 day
Cytochrome P450 2C9 = Cytochrome P450 2C9 (Homo sapiens, UniProt P11712); assay: Inhibition of CYP2C9 in human liver microsomes at 10 to 50 uM; format: ADME; details: dose 10-50 µM
[17] = biological target: Voltage-gated inwardly rectifying potassium channel KCNH2 (Homo sapiens, UniProt Q12809); assay: Inhibition of human ERG by patch clamp method; format: toxicity
Cytochrome P450 2C19 = Cytochrome P450 2C19 (Homo sapiens, UniProt P33261); assay: Inhibition of CYP2C19 in human liver microsomes at 10 to 50 uM; format: ADME; details: dose 10-50 µM
Cytochrome P450 1A2 = Cytochrome P450 1A2 (Homo sapiens, UniProt P05177); assay: Inhibition of CYP1A2 in human liver microsomes at 10 to 50 uM; format: ADME; details: dose 10-50 µM
[18] = Protein binding in human plasma assessed as unbound fraction at 2 uM by rapid equilibrium dialysis method; format: ADME, cell-free
[19] = Volume of distribution at steady state in Beagle dog at 5 mg/kg, po; format: ADME, organism-based, Canis lupus familiaris; details: in vivo
[20] = In vivo toxicity in Sprague-Dawley rat assessed as compound related pathology findings at 500 mg/kg after 28 days; format: organism-based; details: 672 h, time 28 day
[21] = Kinetic aqueous solubility of the compound in pH 6.8; format: physicochemical; details: read-out: Kinetic_solubility
[22] = In vivo toxicity in Sprague-Dawley rat assessed as NOAEL after 28 days; format: organism-based; details: time 28 day
[23] = biological target: T1, Sodium channel protein type 5 subunit alpha (Homo sapiens, UniProt Q14524); assay: Inhibition of tonic human Nav1.5; format: toxicity
[24] = biological target: Phosphatidylinositol 4-phosphate 5-kinase type-1 gamma (Homo sapiens, UniProt O60331); assay: Binding affinity to wild-type human partial length PIP5K1C (M1 to T668 residues) expressed in mammalian expression system by Kinomescan method
[25] = In vivo inhibition of BTK-dependent B cell activation in C57BL/6 mouse immunized with NP-Ficoll assessed as reduction in anti-NP IgM antibody titer at 1 mg/kg, po BID dosed for 10 days; format: functional; set-up: scale not given: the % may be the effect or the level left; details: time 10 day
[26] = Apparent permeability across basolateral to apical side in human Caco2 cells; format: ADME, cell-based; details: Caco-2
[27] = Volume of distribution at steady state in cynomolgus monkey at 5 mg/kg, po; format: ADME, organism-based, Macaca fascicularis; details: in vivo
[28] = Drugmetabolism in dog hepatocytes assessed as metabolite formation; format: ADME, cell-based, Canis lupus familiaris, Hepatocyte
[29] = Apparent permeability across apical to basolateral side in human Caco2 cells; format: ADME, cell-based; details: Caco-2
Cytochrome P450 3A4 = Cytochrome P450 3A4 (Homo sapiens, UniProt P08684); assay: Inhibition of CYP3A4 in human liver microsomes at 10 to 50 uM; format: ADME; details: dose 10-50 µM
[30] = biological target: Toll-like receptor 9 (Homo sapiens) (UniProt Q9NR96); assay: Inhibition of TLR9 in CpG-B stimulated human PBMC at >10 uM; format: cell-based; details: dose microM >10
[31] = biological target: Tumor necrosis factor receptor superfamily member 5 (Homo sapiens) (UniProt P25942); assay: Inhibition of CD40 in IL-4/[…] stimulated human PBMC at >10 uM; format: cell-based; details: dose microM >10
[32] = Clearance in Sprague-Dawley rat assessed as hepatic blood flow at 1 mg/kg, iv; format: ADME, organism-based, Liver; details: in vivo
Liver [33] = assay: Drugmetabolism in dog liver microsomes assessed as metabolite formation; format: ADME, Canis lupus familiaris, Microsome
[34] = Hepatotoxicity in rat primary cells assessed as change in GSH level for 10 days; format: toxicity, cell-based, Hepatocyte; details: hepatocytes, 240 h, time 10 day
[35] = Clearance in cynomolgus monkey assessed as hepatic blood flow at 1 mg/kg, iv; format: ADME, organism-based, Macaca fascicularis, Liver; details: in vivo
[36] = Hepatotoxicity in rat primary cells assessed as change in albumin level for 10 days; format: toxicity, cell-based, Hepatocyte; details: hepatocytes, 240 h, time 10 day
[37] = Drugmetabolism in cynomolgus monkey hepatocytes assessed as metabolite formation; format: ADME, cell-based, Macaca fascicularis, Hepatocyte
[38] = biological target: Dual specificity mitogen-activated protein kinase kinase 2 (Homo sapiens, UniProt P36507); assay: Binding affinity to wild-type human full length MEK2 (M1 to V400 residues) expressed in mammalian expression system by Kinomescan method
[39] = biological target: Early activation antigen CD69 (Homo sapiens, UniProt Q07108); assay: Inhibition of CD69 (unknown origin) assessed as reduction in BCR mediated B cell activation; format: cell-based
Cytochrome P450 2D6 = Cytochrome P450 2D6 (Homo sapiens, UniProt P10635); assay: Inhibition of CYP2D6 in human liver microsomes at 10 to 50 uM; format: ADME; details: dose 10-50 µM
[40] = biological target: T1, Sodium channel protein type 5 subunit alpha; assay: Inhibition of phasic human Nav1.5; format: toxicity
[41] = Drugmetabolism in mouse hepatocytes assessed as metabolite formation; format: ADME, cell-based, Hepatocyte
Liver [42] = assay: Drugmetabolism in rat liver microsomes assessed as metabolite formation; format: ADME, Microsome
[43] = Dissociation constant, pKa of the compound; format: physicochemical
Aurora kinase A = Aurora kinase A (Homo sapiens, UniProt O14965); assay: Binding affinity to wild-type human partial length AURKA (E122 to K401 residues) expressed in mammalian expression system by Kinomescan method
[44] = biological target: Voltage-dependent L-type calcium channel subunit alpha-1C (Homo sapiens, UniProt Q13936); assay: Inhibition of human Cav1.2; format: toxicity
[45] = Protein binding in monkey plasma assessed as unbound fraction; format: ADME, cell-free, Macaca mulatta; details: rhesus monkey

T1 sequence (Q14524 whole entry, the tested form may be a part): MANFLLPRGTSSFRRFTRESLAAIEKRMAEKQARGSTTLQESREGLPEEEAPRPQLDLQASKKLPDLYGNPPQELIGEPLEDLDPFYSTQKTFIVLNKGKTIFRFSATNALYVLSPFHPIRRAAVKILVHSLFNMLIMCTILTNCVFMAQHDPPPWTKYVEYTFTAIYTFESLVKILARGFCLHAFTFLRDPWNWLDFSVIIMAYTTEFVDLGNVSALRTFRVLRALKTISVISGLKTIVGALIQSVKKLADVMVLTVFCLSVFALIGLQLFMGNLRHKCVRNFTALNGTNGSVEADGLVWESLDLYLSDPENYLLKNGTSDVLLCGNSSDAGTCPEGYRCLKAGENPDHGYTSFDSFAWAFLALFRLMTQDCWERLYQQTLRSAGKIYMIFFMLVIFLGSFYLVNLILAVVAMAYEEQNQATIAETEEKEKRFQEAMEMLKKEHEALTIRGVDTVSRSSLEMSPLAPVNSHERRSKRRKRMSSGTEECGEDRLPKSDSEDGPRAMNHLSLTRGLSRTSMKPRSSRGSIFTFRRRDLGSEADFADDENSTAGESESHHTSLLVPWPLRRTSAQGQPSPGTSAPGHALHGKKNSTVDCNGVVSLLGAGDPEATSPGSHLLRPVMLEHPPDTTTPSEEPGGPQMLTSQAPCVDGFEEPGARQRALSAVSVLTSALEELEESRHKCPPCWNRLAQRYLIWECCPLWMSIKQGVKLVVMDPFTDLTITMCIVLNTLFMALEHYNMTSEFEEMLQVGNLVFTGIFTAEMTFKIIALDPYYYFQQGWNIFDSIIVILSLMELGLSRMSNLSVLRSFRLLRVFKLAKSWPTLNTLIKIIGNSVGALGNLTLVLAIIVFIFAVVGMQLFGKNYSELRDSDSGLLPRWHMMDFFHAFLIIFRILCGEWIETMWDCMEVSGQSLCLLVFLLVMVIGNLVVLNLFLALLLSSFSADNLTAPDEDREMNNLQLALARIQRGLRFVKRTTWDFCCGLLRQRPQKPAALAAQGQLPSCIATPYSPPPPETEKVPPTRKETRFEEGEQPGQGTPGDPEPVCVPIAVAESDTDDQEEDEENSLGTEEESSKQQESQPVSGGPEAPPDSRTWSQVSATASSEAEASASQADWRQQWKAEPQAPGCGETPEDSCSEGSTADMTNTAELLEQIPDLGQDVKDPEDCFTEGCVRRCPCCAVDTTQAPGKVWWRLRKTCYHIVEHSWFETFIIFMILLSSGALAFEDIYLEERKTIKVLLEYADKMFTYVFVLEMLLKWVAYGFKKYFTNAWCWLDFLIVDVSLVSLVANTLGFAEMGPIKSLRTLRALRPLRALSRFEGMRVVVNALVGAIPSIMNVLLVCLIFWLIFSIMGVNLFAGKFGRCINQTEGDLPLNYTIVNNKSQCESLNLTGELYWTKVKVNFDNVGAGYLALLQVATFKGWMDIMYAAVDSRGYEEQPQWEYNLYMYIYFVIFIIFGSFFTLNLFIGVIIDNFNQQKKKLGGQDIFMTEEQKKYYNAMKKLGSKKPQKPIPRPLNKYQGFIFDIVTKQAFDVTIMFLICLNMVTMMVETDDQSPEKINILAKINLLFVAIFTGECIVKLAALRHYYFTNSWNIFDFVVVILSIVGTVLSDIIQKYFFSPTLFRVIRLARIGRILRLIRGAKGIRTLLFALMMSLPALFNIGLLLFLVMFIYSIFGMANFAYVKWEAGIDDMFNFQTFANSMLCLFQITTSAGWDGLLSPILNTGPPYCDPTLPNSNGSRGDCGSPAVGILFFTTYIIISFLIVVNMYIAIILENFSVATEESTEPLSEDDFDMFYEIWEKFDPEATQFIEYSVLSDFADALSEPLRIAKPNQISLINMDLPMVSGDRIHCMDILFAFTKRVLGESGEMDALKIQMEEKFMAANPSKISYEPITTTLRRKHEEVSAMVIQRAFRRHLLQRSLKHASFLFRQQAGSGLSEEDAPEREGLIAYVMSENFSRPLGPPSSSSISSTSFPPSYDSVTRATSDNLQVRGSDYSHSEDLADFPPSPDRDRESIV
Aurora kinase A, sequence (O14965 whole entry, the tested form may be a part): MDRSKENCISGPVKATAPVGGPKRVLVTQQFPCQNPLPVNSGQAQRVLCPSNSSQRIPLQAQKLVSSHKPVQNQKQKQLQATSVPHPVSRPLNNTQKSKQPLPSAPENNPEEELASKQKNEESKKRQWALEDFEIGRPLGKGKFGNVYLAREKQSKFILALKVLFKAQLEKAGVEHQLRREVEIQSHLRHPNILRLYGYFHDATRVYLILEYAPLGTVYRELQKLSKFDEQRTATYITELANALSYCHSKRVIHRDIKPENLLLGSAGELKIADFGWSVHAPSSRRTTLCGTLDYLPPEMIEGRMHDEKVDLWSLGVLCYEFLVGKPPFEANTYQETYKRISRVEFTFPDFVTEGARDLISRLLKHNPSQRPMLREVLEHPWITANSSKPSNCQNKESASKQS
Phosphatidylinositol 4-phosphate 5-kinase type-1 gamma, sequence (O60331 whole entry, the tested form may be a part): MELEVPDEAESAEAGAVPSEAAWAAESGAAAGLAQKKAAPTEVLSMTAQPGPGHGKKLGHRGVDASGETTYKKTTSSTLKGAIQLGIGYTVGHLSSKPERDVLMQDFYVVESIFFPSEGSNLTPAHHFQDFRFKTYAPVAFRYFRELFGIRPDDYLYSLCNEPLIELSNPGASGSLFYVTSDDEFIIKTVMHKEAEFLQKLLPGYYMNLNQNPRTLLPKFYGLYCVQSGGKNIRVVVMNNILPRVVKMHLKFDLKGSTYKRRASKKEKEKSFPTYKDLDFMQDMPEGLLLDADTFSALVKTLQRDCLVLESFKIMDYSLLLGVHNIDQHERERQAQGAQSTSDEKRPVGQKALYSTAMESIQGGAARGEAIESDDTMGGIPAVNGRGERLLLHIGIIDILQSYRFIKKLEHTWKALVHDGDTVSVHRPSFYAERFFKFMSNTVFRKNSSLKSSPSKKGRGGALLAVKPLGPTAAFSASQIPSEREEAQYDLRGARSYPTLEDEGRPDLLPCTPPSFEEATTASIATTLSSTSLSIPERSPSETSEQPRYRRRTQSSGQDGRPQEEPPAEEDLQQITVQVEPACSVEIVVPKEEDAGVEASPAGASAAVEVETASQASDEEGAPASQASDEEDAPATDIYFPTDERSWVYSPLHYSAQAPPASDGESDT
Voltage-gated inwardly rectifying potassium channel KCNH2, sequence (Q12809 whole entry): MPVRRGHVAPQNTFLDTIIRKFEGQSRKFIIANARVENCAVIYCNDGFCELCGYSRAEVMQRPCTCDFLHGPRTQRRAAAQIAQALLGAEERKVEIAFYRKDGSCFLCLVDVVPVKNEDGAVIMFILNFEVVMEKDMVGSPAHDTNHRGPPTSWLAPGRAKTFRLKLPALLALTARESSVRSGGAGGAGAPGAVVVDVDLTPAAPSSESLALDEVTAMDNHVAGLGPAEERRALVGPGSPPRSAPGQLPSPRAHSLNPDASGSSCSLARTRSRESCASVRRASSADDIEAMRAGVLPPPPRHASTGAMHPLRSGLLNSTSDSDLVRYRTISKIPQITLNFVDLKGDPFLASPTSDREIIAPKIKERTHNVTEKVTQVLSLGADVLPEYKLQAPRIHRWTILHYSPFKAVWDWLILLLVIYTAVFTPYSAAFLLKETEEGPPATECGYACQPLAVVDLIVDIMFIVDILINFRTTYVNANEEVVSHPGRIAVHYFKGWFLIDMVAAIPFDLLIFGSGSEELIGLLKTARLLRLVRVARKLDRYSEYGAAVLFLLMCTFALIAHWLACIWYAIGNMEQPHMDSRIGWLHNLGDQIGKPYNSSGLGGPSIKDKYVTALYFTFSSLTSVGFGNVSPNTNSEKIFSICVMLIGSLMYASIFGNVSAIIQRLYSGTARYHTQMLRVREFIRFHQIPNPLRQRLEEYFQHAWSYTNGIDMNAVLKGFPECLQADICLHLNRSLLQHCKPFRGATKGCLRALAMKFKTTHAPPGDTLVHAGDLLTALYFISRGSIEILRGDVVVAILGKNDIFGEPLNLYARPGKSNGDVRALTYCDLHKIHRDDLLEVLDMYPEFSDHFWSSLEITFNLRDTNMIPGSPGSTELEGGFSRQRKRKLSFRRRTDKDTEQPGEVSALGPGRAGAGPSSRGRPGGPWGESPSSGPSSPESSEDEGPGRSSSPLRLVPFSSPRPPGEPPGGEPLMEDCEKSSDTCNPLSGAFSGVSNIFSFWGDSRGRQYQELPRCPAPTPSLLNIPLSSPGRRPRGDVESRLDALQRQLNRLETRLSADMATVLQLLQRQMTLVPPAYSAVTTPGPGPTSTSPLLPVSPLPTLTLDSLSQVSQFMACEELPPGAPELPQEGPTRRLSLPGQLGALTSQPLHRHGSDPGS
Cytochrome P450 2D6, sequence (P10635 whole entry): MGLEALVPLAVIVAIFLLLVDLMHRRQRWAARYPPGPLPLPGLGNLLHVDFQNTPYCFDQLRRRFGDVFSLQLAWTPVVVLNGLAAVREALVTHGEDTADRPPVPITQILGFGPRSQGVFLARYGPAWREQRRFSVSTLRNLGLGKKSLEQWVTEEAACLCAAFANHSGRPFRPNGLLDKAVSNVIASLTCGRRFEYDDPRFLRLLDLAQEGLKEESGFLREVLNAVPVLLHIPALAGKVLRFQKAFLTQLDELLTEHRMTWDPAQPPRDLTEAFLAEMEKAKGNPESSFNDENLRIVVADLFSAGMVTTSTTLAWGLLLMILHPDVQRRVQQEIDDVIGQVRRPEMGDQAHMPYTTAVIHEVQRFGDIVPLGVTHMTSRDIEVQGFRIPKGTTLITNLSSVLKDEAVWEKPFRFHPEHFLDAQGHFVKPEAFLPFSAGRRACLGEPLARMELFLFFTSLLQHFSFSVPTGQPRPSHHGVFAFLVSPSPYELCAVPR
Tumor necrosis factor receptor superfamily member 5 (Homo sapiens), sequence (P25942 whole entry): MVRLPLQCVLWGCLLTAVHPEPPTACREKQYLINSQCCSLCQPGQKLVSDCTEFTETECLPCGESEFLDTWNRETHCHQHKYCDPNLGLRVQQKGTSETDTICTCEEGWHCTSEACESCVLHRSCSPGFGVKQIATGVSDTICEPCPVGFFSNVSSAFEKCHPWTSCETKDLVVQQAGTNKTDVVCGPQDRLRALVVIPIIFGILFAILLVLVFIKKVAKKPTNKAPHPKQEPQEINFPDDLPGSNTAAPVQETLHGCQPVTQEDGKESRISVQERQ

For `Cn1cc(Nc2nccc(-c3ccc4c(c3)CN(C3COC3)CC[C@H]4NC(=O)c3cn(C(C)(C)C)nn3)n2)cn1` [BIIB-091], which Drug metabolism (Liver [1]) is on record?
The Drug metabolism was “Metabolite_Notdetected”.

And the fraction unbound [2]?
Its fraction unbound is 0.26.

What about the Activity (Cynomolgus monkey [3]) of the same compound?
The Activity was “Non-Toxic”.

What about the “inhibition (INH)” value (Bile salt export pump) of the same compound?
The value was “Not Active”.

And the solubility kinetic [4]?
The solubility kinetic was > 50 µg/mL.

What about the Activity [5] of the same compound?
Its Activity is “Non-Toxic”.

And the Drug metabolism [6]?
The Drug metabolism was “Metabolite_Notdetected”.

What about the “inhibition (INH)” value [7] of the same compound?
The value was “Not Active”.

What about the Activity [8] of the same compound?
The Activity was “Non-Toxic”.

And the Drug metabolism [9]?
Its Drug metabolism is “Metabolite_Notdetected”.

What about the Activity [10] of the same compound?
Its Activity is 77%.

What about the ED50 [11] of the same compound?
The ED50 was 1.95 mg/kg.

And the Vdss [12]?
Its Vdss is 0.4 L/kg.

What about the fraction unbound [13] of the same compound?
The fraction unbound was 0.1.

And the Activity (Cynomolgus monkey [14])?
Its Activity is “Non-Toxic”.

And the Drug metabolism [15]?
Its Drug metabolism is “Metabolite_Notdetected”.

What about the Activity [16] of the same compound?
Its Activity is 88%.

And the “inhibition (INH)” value (Cytochrome P450 2C9)?
The value was “Not Active”.

And the IC50 [17]?
Its IC50 is > 25 µM.

What about the “inhibition (INH)” value (Cytochrome P450 2C19) of the same compound?
Its value is “Not Active”.

And the “inhibition (INH)” value (Cytochrome P450 1A2)?
The value was “Not Active”.

And the fraction unbound at 2 µM [18]?
The fraction unbound at 2 µM was 0.26.

What about the Vdss [19] of the same compound?
Its Vdss is 1.7 L/kg.

What about the Activity [20] of the same compound?
Its Activity is “Non-Toxic”.

And the solubility kinetic [21]?
The solubility kinetic was > 50 µg/mL.

And the NOAEL at 672 h [22]?
Its NOAEL at 672 h is 500 mg/kg.

What about the IC50 [23] of the same compound?
The IC50 was > 25 µM.

What about the Kd [24] of the same compound?
The Kd was 420 nM.

And the Activity [25]?
Its Activity is 59%.

What about the Papp B→A [26] of the same compound?
The Papp B→A was 37.6 ×10⁻⁶ cm/s.

And the Vdss [27]?
The Vdss was 0.7 L/kg.

And the Drug metabolism [28]?
The Drug metabolism was “Metabolite_Notdetected”.

And the Papp A→B [29]?
The Papp A→B was 1.78 ×10⁻⁶ cm/s.

What about the “inhibition (INH)” value (Cytochrome P450 3A4) of the same compound?
The value was “Not Active”.

What about the inhibition [30] of the same compound?
The inhibition was “inactive”.

And the inhibition [31]?
The inhibition was “inactive”.

And the QH [32]?
The QH was 22%.

And the Drug metabolism (Liver [33])?
Its Drug metabolism is “Metabolite_Notdetected”.

And the Activity [34]?
Its Activity is “Non-Toxic”.

And the QH [35]?
The QH was 44%.

And the Activity [36]?
Its Activity is “Non-Toxic”.

What about the Drug metabolism [37] of the same compound?
The Drug metabolism was “Metabolite_Notdetected”.

And the Kd [38]?
The Kd was 200 nM.

What about the IC50 [39] of the same compound?
The IC50 was 71 nM.

What about the “inhibition (INH)” value (Cytochrome P450 2D6) of the same compound?
Its value is “Not Active”.

What about the IC50 [40] of the same compound?
The IC50 was > 25 µM.

What about the Drug metabolism [41] of the same compound?
The Drug metabolism was “Metabolite_Notdetected”.

What about the Drug metabolism (Liver [42]) of the same compound?
Its Drug metabolism is “Metabolite_Notdetected”.

What about the pKa [43] of the same compound?
Its pKa is 2.8.

What about the Kd (Aurora kinase A) of the same compound?
Its Kd is 660 nM.

And the IC50 [44]?
Its IC50 is > 25 µM.

And the fraction unbound [45]?
The fraction unbound was 0.19.
